Laboratory results published in US8106155B2, “Test kit for determining process for determining antibiotics containing a beta-lactam ring in a biological fluid” (Neogen Corporation, priority 1998, dated 2012).
Like-named read-outs stand apart in the source and are kept apart here.

Experiments:
BlaR-CTD receptor [1] = molecular target: T1, BlaR-CTD receptor (Bacillus licheniformis, UniProt P12287); test: 20-minute test: BlaR-CTD coupled to gold beads, membrane test device, milk; type: binding; conditions: 47° C.; for Intensity 1st band: 20-minute test, scale 0 to 10, reference band 6
T1 construct: uses the BlaR-CTD receptor coupled to gold beads
T1 sequence (P12287 354-601): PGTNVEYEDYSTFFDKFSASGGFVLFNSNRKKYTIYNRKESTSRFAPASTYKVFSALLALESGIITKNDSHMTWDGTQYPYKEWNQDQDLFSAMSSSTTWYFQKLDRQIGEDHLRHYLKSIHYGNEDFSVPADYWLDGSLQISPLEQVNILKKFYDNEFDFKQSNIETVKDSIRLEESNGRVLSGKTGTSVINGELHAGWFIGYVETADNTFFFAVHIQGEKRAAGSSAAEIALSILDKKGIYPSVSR
Description: (§1) This example illustrates the detection in milk of antibiotics containing a β-lactam ring, which are controlled by the health authorities. The test described in this example uses the BlaR-CTD receptor coupled to gold beads which serve as labelling agents, and uses a support in the form of a test device comprising a solid support to which membranes are attached.
6 samples of fresh milk containing 0; 20; 30; 40; 50 and 60 ppb of ceftiofur, respectively, are prepared. Each of these solutions is then analyzed in the following way.
(§2) A 200 μl aliquot sample of milk and 45.27 μl of solution prepared in Example 1.1.3 are taken and placed in a glass flask. This mixture is incubated for 18 minutes at 47° C. A test device is taken and placed vertically in the glass flask such that the first end of the test device is in contact with the mixture and such that the second end rests on the wall of the glass flask. The mixture is left to migrate on the test device, while incubating the assembly for 2 minutes at 47° C.
(§3) An intensity value ranging from 0 to 10 is attributed to the bands detected, the value 10 being given to the most intense band and the value 0 being given to the least intense band. According to this scale, a value of 6 is assigned to the reference band. The intensity of the signal observed in the first band is inversely proportional to the amount of ceftiofur present in the sample.
In this example, when the first band has an intensity less than that of the second band, the test is considered as being positive.

BlaR-CTD receptor [2] = molecular target: T1, BlaR-CTD receptor; test: 9-minute test: BlaR-CTD coupled to gold beads, membrane test device, milk; type: binding; conditions: 47° C.; for concentration detected in a sample of milk: test carried out in 9 minutes, positive when 1st band less intense than 2nd band; for Intensity 1st band: 9-minute test, scale 0 to 10, reference band 6
Description: as §1
6 samples of fresh milk containing 0; 4; 6; 8; 10 and 12 ppb of cephapirin, respectively, are prepared. Each of these solutions is then analyzed in the following way.
as §2, with “7” for “18”
as §3, with “cephapirin” for “ceftiofur”
(§4) In this example, when the first band has an intesity less than that of the second band, the test is considered as being positive.

[3] = molecular target: T2, BlaR-CTD receptor in the form of two fusion proteins with alkaline phosphatase and peroxidase (Bacillus licheniformis, UniProt P12287); test: Example 3: BlaR-CTD fusion proteins with alkaline phosphatase and peroxidase, cephalosporin C microplate, milk; type: binding; conditions: absorbance at 405 nm, 47° C., at the control thresholds required by the US authorities
T2 construct: uses the BlaR-CTD receptor in the form of two fusion proteins with alkaline phosphatase and peroxidase, respectively; alkaline phosphatase, chemically coupled (Boehringer-Mannheim 1464752); peroxidase, chemically coupled (Boehringer-Mannheim 1428861)
T2 sequence (P12287 354-601): as above
Excerpt: This example illustrates the detection in milk of 3 antibiotics containing a β-lactam ring which are controlled by the health authorities. The test described in this example uses the BlaR-CTD receptor in the form of two fusion proteins with alkaline phosphatase and peroxidase, respectively, and uses a support in the form of a microplate.
Polystyrene microplates with high protein adsorption, of the brand name NUNK (Immuno Plate: Maxisorp type) or of the brand name GREINER (microlon 600, reference 705071), are used. The microplate cuvettes are washed with 150 mM, pH 7.2 PBS buffer. Next, an aliquot of the solution prepared in Example 3.3.1. is incubated for 24 hours at 4° C. in the cuvettes. After incubation, the cuvettes are washed three times with 150 mM, pH 7.2 PBS buffer, 0.1% Tween-20. The tube is then saturated for two hours at 20° C. with 150 mM, pH 7.2 PBS saturation buffer, 5% BSA. After washing three times with washing buffer, the tubes are dried and stored at 4° C. away from moisture.
For the cuvettes intended for the BlaR-CTD-alkaline phosphatase recognition agent, the washing buffer used is 1 M, pH 9.8 diethanolamine, 0.5 mM MgCl2: for the cuvettes intended for the BlaR-CTD-peroxidase recognition agent, the washing buffer used is 50 mM, pH 5 potassium phosphate.
1.4 picomol of labelled recognition agent are incubated in the presence of 100 μl of doped milk for 5 minutes at 47° C. The milk is transferred using a pipette into a cuvette which has been pretreated as indicated in Example 2.3. The milk is then incubated for 2 minutes at 47° C. […] The plate is then placed in an automatic spectrophotometer for ELISA plates, the wavelength being set at 405 nm.

BlaR-CTD receptor [4] = molecular target: T1, BlaR-CTD receptor; test: 3-minute rapid test: BlaR-CTD coupled to gold beads, membrane test device, milk; type: binding; conditions: 47° C.; for concentration detected in a sample of milk: test carried out in 3 minutes, positive when 1st band less intense than 2nd band; for Intensity 1st band: 3-minute test, scale 0 to 10, reference band 6
Description: as §1
7 samples of fresh milk containing 0; 1; 2; 3; 4; 5 and 6 ppb of penicillin G, respectively, are prepared. Each of these solutions is then analyzed in the following way:
as §2, with “1 minute” for “18 minutes”
as §3, with “penicillin G” for “ceftiofur”
as §4

[5] = molecular target: soluble exocellular D-alanyl-D-alanine carboxypeptidase (enzyme R39) (Actinomadura sp., UniProt P39045); conditions: cited from earlier work
soluble exocellular D-alanyl-D-alanine carboxypeptidase (enzyme R39), sequence (P39045 50-515): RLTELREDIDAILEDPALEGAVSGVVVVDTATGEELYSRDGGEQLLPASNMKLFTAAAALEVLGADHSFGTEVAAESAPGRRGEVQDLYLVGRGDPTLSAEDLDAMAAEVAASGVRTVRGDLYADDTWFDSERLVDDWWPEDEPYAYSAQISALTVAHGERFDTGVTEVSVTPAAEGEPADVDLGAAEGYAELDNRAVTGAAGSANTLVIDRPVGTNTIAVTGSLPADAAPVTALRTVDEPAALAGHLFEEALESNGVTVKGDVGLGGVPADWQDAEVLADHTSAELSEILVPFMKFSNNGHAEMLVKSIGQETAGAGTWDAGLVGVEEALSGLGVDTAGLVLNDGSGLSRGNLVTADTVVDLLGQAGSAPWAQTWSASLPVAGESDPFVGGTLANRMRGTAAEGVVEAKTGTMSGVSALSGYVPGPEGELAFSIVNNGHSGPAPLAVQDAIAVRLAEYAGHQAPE

With CO/N=C(\C(=O)N[C@@H]1C(=O)N2C(C(=O)O)=C(CSC(=O)c3ccco3)CS[C@H]12)c1csc(N)n1 [ceftiofur] the “Intensity 1st band” value (BlaR-CTD receptor [1]; 20 ppb ceftiofur in milk) was 6, the “Intensity 1st band” value (BlaR-CTD receptor [1]; 30 ppb ceftiofur in milk) was 5 and the “Intensity 1st band” value (BlaR-CTD receptor [1]; 40 ppb ceftiofur in milk) was 4. For the same molecule, the “Intensity 1st band” value (BlaR-CTD receptor [1]; 50 ppb ceftiofur in milk) was 3, the “Intensity 1st band” value (BlaR-CTD receptor [1]; 60 ppb ceftiofur in milk) was 3 and the “concentration detected in a sample of milk” value (BlaR-CTD receptor [1]; test in 20 minutes, positive when 1st band less intense than 2nd band) was 30 ppb. For the same molecule, the “concentration detected in a sample of milk” value (BlaR-CTD receptor [2]) was 80 ppb and the “concentration detected in milk” value [3] was 50 ppb.

With CC(=O)OCC1=C(C(=O)O)N2C(=O)[C@@H](NC(=O)CSc3ccncc3)[C@H]2SC1 [cephapirin] the “Intensity 1st band” value (BlaR-CTD receptor [2]; 4 ppb cephapirin in milk) was 6, the “Intensity 1st band” value (BlaR-CTD receptor [2]; 6 ppb cephapirin in milk) was 5 and the “Intensity 1st band” value (BlaR-CTD receptor [2]; 8 ppb cephapirin in milk) was 4. The “Intensity 1st band” value (BlaR-CTD receptor [2]; 10 ppb cephapirin in milk) was 3, the “Intensity 1st band” value (BlaR-CTD receptor [2]; 12 ppb cephapirin in milk) was 3 and the “concentration detected in a sample of milk” value (BlaR-CTD receptor [2]) was 6 ppb. The “concentration detected in a sample of milk” value (BlaR-CTD receptor [4]) was 20 ppb.

For CC1(C)S[C@@H]2[C@H](NC(=O)Cc3ccccc3)C(=O)N2[C@H]1C(=O)O [penicillin G], the “concentration determined in milk” value ([5]; total incubation time of 5 minutes) is listed as 10 ppb, the “concentration determined in milk” value ([5]; total incubation time of 15 minutes) is listed as “about 2.5 ppb” and the “concentration detected in a sample of milk” value (BlaR-CTD receptor [2]) is listed as 3 ppb. For the same molecule, the “concentration detected in milk” value [3] was 5 ppb, the “Intensity 1st band” value (BlaR-CTD receptor [4]; 1 ppb penicillin G in milk) was 9 and the “Intensity 1st band” value (BlaR-CTD receptor [4]; 2 ppb penicillin G in milk) was 9. For the same molecule, the “Intensity 1st band” value (BlaR-CTD receptor [4]; 3 ppb penicillin G in milk) was 4, the “Intensity 1st band” value (BlaR-CTD receptor [4]; 4 ppb penicillin G in milk) was 0 and the “Intensity 1st band” value (BlaR-CTD receptor [4]; 5 ppb penicillin G in milk) was 0. For the same molecule, the “Intensity 1st band” value (BlaR-CTD receptor [4]; 6 ppb penicillin G in milk) was 0 and the “concentration detected in a sample of milk” value (BlaR-CTD receptor [4]) was “less than 4 ppb”.
